The values that follow come from PMC2788963 (Bioorganic & medicinal chemistry letters, 2009).

This experiment has as its target SERT (Rattus norvegicus, UniProt P31652). It counts as binding. Particulars: selectivity, ratio of Ki values.

SERT, sequence (P31652 whole entry): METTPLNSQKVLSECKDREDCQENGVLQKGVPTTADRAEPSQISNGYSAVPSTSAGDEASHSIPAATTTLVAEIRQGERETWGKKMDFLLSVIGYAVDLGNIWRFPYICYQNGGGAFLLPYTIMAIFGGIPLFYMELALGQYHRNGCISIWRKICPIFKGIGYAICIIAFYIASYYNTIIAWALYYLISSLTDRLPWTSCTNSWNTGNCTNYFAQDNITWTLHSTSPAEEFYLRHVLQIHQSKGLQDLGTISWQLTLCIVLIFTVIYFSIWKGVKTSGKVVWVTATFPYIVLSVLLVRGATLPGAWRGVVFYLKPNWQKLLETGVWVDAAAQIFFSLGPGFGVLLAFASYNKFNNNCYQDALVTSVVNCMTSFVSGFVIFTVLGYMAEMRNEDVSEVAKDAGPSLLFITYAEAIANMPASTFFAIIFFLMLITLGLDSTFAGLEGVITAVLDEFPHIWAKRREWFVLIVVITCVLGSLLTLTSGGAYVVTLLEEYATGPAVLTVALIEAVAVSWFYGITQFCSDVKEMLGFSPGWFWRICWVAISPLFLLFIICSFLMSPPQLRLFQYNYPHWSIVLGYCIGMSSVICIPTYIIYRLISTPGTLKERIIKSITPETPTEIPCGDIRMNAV

Consider `Clc1ccc(CO[C@@]2(c3ccc(Cl)cc3)C[C@H]3CC[C@@H](C2)N3)cc1` [7f], for which the NET/SERT is reported as 23,700.
